In the CheMixHub viscosity set:
± gives the uncertainty stated by the source.

Test: xn = mol fraction of the nth substance listed

OCCO + O
Settings	viscosity [mPa·s]
293.15 K, 100 kPa, x1 = 0.3	5.035 ± 0.015
293.15 K, 101 kPa, x1 = 0.0744	1.724 ± 0.023
293.15 K, 101 kPa, x1 = 0.1209	2.258 ± 0.03
293.15 K, 101.3 kPa, x1 = 0.031	1.28 ± 0.03
293.15 K, 101.3 kPa, x1 = 0.068	1.79 ± 0.05
293.15 K, 101.3 kPa, x1 = 0.11	1.9 ± 0.05
293.15 K, 101.3 kPa, x1 = 0.14	2.47 ± 0.07
293.15 K, 101.3 kPa, x1 = 0.16	2.8 ± 0.08
293.15 K, 101.3 kPa, x1 = 0.19	3.14 ± 0.08
293.15 K, 101.3 kPa, x1 = 0.22	3.66 ± 0.1
293.15 K, 101.3 kPa, x1 = 0.26	4.09 ± 0.11
293.15 K, 101.3 kPa, x1 = 0.3	4.68 ± 0.13
293.15 K, 101.3 kPa, x1 = 0.4	6.5 ± 0.18
293.15 K, 101.3 kPa, x1 = 0.54	9.03 ± 0.24
293.15 K, 101.3 kPa, x1 = 0.72	13.6 ± 0.4
298.15 K, 101 kPa, x1 = 0.0414	1.22 ± 0.01
298.15 K, 101 kPa, x1 = 0.118	1.97 ± 0.02
298.15 K, 101 kPa, x1 = 0.1553	2.36 ± 0.02
298.15 K, 101 kPa, x1 = 0.3385	4.73 ± 0.03
298.15 K, 101 kPa, x1 = 0.3521	4.96 ± 0.04
298.15 K, 101 kPa, x1 = 0.4133	5.94 ± 0.04
298.15 K, 101 kPa, x1 = 0.5333	7.96 ± 0.06
298.15 K, 101 kPa, x1 = 0.6376	9.9 ± 0.07
298.15 K, 101 kPa, x1 = 0.7762	12.56 ± 0.09
298.15 K, 101 kPa, x1 = 0.8769	14.49 ± 0.1
298.15 K, 101 kPa, x1 = 0.907	15.05 ± 0.1
298.15 K, 101 kPa, x2 = 0.0034	16.94 ± 0.12
298.15 K, 101.33 kPa, x1 = 0.1753	2.58 ± 0.07
298.15 K, 101.33 kPa, x1 = 0.3316	4.73 ± 0.12
298.15 K, 101.33 kPa, x1 = 0.5615	8.36 ± 0.22
303.15 K, 101.3 kPa, x1 = 0.031	0.92 ± 0.03
303.15 K, 101.3 kPa, x1 = 0.068	1.27 ± 0.03
303.15 K, 101.3 kPa, x1 = 0.11	1.43 ± 0.04
303.15 K, 101.3 kPa, x1 = 0.14	1.87 ± 0.05
303.15 K, 101.3 kPa, x1 = 0.16	2.09 ± 0.06
303.15 K, 101.3 kPa, x1 = 0.19	2.34 ± 0.06
303.15 K, 101.3 kPa, x1 = 0.22	2.7 ± 0.07
303.15 K, 101.3 kPa, x1 = 0.26	2.99 ± 0.08
303.15 K, 101.3 kPa, x1 = 0.3	3.38 ± 0.09
303.15 K, 101.3 kPa, x1 = 0.4	4.59 ± 0.12
303.15 K, 101.3 kPa, x1 = 0.54	6.29 ± 0.17
303.15 K, 101.3 kPa, x1 = 0.72	9.22 ± 0.25
303.15 K, 101.33 kPa, x1 = 0.0003	0.778 ± 0.011
303.15 K, 101.33 kPa, x1 = 0.0009	0.781 ± 0.011
303.15 K, 101.33 kPa, x1 = 0.0059	0.808 ± 0.011
303.15 K, 101.33 kPa, x1 = 0.01	0.834 ± 0.011
303.15 K, 101.33 kPa, x1 = 0.0136	0.856 ± 0.012
303.15 K, 101.33 kPa, x1 = 0.0616	1.18 ± 0.015
303.15 K, 101.33 kPa, x1 = 0.1054	1.529 ± 0.02
303.15 K, 101.33 kPa, x1 = 0.1634	2.03 ± 0.025
303.15 K, 101.33 kPa, x1 = 0.1935	2.348 ± 0.029
303.15 K, 101.33 kPa, x1 = 0.2969	3.435 ± 0.042
303.15 K, 101.33 kPa, x1 = 0.3955	4.638 ± 0.056
303.15 K, 101.33 kPa, x1 = 0.4982	6 ± 0.069
303.15 K, 101.33 kPa, x1 = 0.5873	7.264 ± 0.08
303.15 K, 101.33 kPa, x1 = 0.6734	8.539 ± 0.092
303.15 K, 101.33 kPa, x1 = 0.7944	10.39 ± 0.11
303.15 K, 101.33 kPa, x1 = 0.8719	11.58 ± 0.12
303.15 K, 101.33 kPa, x1 = 0.941	12.69 ± 0.13
303.15 K, 101.33 kPa, x2 = 0.0134	13.35 ± 0.14
308.15 K, 101.33 kPa, x1 = 0.0003	0.706 ± 0.01
308.15 K, 101.33 kPa, x1 = 0.0009	0.709 ± 0.01
308.15 K, 101.33 kPa, x1 = 0.0059	0.733 ± 0.01
308.15 K, 101.33 kPa, x1 = 0.01	0.752 ± 0.01
308.15 K, 101.33 kPa, x1 = 0.0136	0.774 ± 0.011
308.15 K, 101.33 kPa, x1 = 0.0616	1.044 ± 0.014
308.15 K, 101.33 kPa, x1 = 0.1054	1.326 ± 0.017
308.15 K, 101.33 kPa, x1 = 0.1634	1.756 ± 0.022
308.15 K, 101.33 kPa, x1 = 0.1935	2.016 ± 0.025
308.15 K, 101.33 kPa, x1 = 0.2969	2.919 ± 0.036
308.15 K, 101.33 kPa, x1 = 0.3955	3.905 ± 0.047
308.15 K, 101.33 kPa, x1 = 0.4982	5.004 ± 0.06
308.15 K, 101.33 kPa, x1 = 0.5873	6.04 ± 0.069
308.15 K, 101.33 kPa, x1 = 0.6734	7.077 ± 0.079
308.15 K, 101.33 kPa, x1 = 0.7944	8.555 ± 0.092
308.15 K, 101.33 kPa, x1 = 0.8719	9.501 ± 0.1
308.15 K, 101.33 kPa, x1 = 0.941	10.35 ± 0.11
308.15 K, 101.33 kPa, x2 = 0.2029	8.051 ± 0.17
308.15 K, 101.33 kPa, x2 = 0.3005	6.899 ± 0.15
308.15 K, 101.33 kPa, x2 = 0.3986	5.846 ± 0.13
308.15 K, 101.33 kPa, x2 = 0.5012	4.779 ± 0.11
308.15 K, 101.33 kPa, x2 = 0.5999	3.798 ± 0.088
308.15 K, 101.33 kPa, x2 = 0.6987	2.866 ± 0.067
308.15 K, 101.33 kPa, x2 = 0.8008	1.998 ± 0.048
308.15 K, 101.33 kPa, x2 = 0.8947	1.315 ± 0.033
313.15 K, 101.3 kPa, x1 = 0.031	0.8 ± 0.02
313.15 K, 101.3 kPa, x1 = 0.068	1.04 ± 0.03
313.15 K, 101.3 kPa, x1 = 0.11	1.08 ± 0.03
313.15 K, 101.3 kPa, x1 = 0.14	1.46 ± 0.04
313.15 K, 101.3 kPa, x1 = 0.16	1.61 ± 0.04
313.15 K, 101.3 kPa, x1 = 0.19	1.8 ± 0.05
313.15 K, 101.3 kPa, x1 = 0.22	2.04 ± 0.05
313.15 K, 101.3 kPa, x1 = 0.3	2.54 ± 0.07
313.15 K, 101.3 kPa, x1 = 0.4	3.4 ± 0.09
313.15 K, 101.3 kPa, x1 = 0.54	4.58 ± 0.12
313.15 K, 101.3 kPa, x1 = 0.72	6.53 ± 0.17
323.15 K, 101.3 kPa, x1 = 0.031	0.67 ± 0.02
323.15 K, 101.3 kPa, x1 = 0.068	0.82 ± 0.02
323.15 K, 101.3 kPa, x1 = 0.11	0.9 ± 0.02
323.15 K, 101.3 kPa, x1 = 0.14	1.21 ± 0.03
323.15 K, 101.3 kPa, x1 = 0.16	1.3 ± 0.03
323.15 K, 101.3 kPa, x1 = 0.19	1.44 ± 0.04
323.15 K, 101.3 kPa, x1 = 0.22	1.62 ± 0.04
323.15 K, 101.3 kPa, x1 = 0.26	1.81 ± 0.05
323.15 K, 101.3 kPa, x1 = 0.3	1.97 ± 0.05
323.15 K, 101.3 kPa, x1 = 0.4	2.59 ± 0.07
323.15 K, 101.3 kPa, x1 = 0.54	3.46 ± 0.09
323.15 K, 101.3 kPa, x1 = 0.72	4.83 ± 0.13
